# Tested on: human kidney
# Assay: periodic infusion of insulin into a perfused, extracted three-day-old human kidney (similar to PIR treatment)
# From the text: For example, using a three-day-old human kidney that was extracted or otherwise removed from the human body, after a control period, the kidney was augmented with a periodic infusion of insulin for approximately two hours at a concentration similar to the amount of insulin projected to be seen by a kidney in situ in a person who would receive physiological insulin resensitization (PIR) treatment.
# The perfusate was sampled before and after passing through the kidney at five-to-fifteen-minute intervals to determine if glucose was being removed and to determine any changes in electrolytes, such as sodium and potassium.
# The ability of the kidney to generate and excrete urine was monitored via a catheter attached to a ureter.
# Two-millimeter punch biopsies were examined approximately every fifteen minutes with a specialized Acquyre Biosciences microscope that produces pseudo-colored images at a cellular level that reflect the extent of intracellular organellar movement. Intracellular movement is dependent on the availability of cytoplasmic ATP (adenosine triphosphate).
substance,measurement,setting,value
insulin,ability of the kidney to generate and excrete urine,"monitored via catheter attached to a ureter, after about one hour of treatment, no excretion during control period",the kidney began to excrete urine
same,glucose ingested by the kidney from the perfusate,"perfusate sampled before and after passing through the kidney at five-to-fifteen-minute intervals, periodic insulin infusion for approximately two hours, versus control period",well in excess of the control level
same,"alteration of electrolyte concentrations (sodium, potassium) in the perfusate","perfusate sampled before and after passing through the kidney, periodic insulin infusion, versus control period",better alter the electrolyte concentrations in a manner similar to a kidney in situ
same,intracellular organellar movement in punch biopsies (reflects cytoplasmic ATP),"two-millimeter punch biopsies, Acquyre Biosciences microscope, after approximately thirty minutes of perfusion, relative to control period",obvious increase in intracellular movement relative to the control period
